Reference: patent US20050101518A1, “Methods of treating conditions associated with an EDG-2 receptor” (priority 2002, published 2005)

Key:
Edg 1 receptor = target: T1, Edg 1 receptor (Homo sapiens, UniProt P21453); experiment: Intracellular calcium measurement (FLIPR), S1P-stimulated calcium increases in HTC cells expressing Edg 1; format: cell-based; conditions: FIG. 1 and 2
T1 construct: expressed in transfected cells; host or cells: HTC (rat hepatoma) cells

Edg-2 receptor = target: T2, Edg-2 receptor (Homo sapiens, UniProt Q92633); experiment: Intracellular calcium measurement (FLIPR), LPA-stimulated calcium increases in rat hepatoma (HTC) cells stably expressing Edg-2; format: cell-based; conditions: for inhibition of the Edg 2 receptor: FIG. 1 and 2; for IC50: calcium mobilization, HTC cells expressing Edg 2; for Fold Selective: selectivity for Edg-2 relative to other Edg receptors
T2 construct: expressed in transfected cells
T2 sequence (Q92633 whole entry): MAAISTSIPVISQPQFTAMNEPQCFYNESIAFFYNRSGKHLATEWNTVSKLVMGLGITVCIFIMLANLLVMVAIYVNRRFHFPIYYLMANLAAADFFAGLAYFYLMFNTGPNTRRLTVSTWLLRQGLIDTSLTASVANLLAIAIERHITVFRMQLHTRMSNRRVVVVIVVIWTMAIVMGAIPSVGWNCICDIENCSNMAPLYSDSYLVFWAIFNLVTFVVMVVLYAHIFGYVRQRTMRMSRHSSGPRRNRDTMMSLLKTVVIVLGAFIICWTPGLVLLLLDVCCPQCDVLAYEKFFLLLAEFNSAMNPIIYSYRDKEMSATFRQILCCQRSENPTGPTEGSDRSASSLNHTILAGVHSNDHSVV
Excerpt: (§1) LPA receptors such as Edg-2, couple to calcium effector pathways, and result in increases in intracellular calcium following receptor activation (An, 1998, J. Cell. Biochem. Supp., 30-31: 147-157). This biological response lends itself to a very efficient, high-throughput screen using a Fluorescence Imaging Plate Reader (FLIPR; Molecular Devices, Sunnyvale, Calif.). The FLIPR system is a real-time, cell-based assay system with continuous fluorescence detection using a cooled CCD camera. The FLIPR system was used to developing an Edg-2 receptor screen. Rat hepatoma cells stably expressing Edg-2 receptor were plated on 384-well plates and loaded with a calcium dye loading kit (Molecular Devices, Sunnyvale, Calif.) for 1 hour at room temperature. Cells were then placed on the FLIPR^384 (Molecular Devices, Sunnyvale, Calif.) and excited by an argon laser at 488 nm. The data for the entire 384-well plate was updated every second. An integrated robotic pipettor allowed for simultaneous compound addition into each individual well in the plate.

Edg 3 receptor = target: T3, Edg 3 receptor (Homo sapiens, UniProt Q99500); experiment: Intracellular calcium measurement (FLIPR), S1P-stimulated calcium increases in HTC cells expressing Edg 3; format: cell-based; conditions: FIG. 1 and 2
T3 construct: expressed in transfected cells; host or cells: HTC (rat hepatoma) cells
T3 sequence (Q99500 whole entry): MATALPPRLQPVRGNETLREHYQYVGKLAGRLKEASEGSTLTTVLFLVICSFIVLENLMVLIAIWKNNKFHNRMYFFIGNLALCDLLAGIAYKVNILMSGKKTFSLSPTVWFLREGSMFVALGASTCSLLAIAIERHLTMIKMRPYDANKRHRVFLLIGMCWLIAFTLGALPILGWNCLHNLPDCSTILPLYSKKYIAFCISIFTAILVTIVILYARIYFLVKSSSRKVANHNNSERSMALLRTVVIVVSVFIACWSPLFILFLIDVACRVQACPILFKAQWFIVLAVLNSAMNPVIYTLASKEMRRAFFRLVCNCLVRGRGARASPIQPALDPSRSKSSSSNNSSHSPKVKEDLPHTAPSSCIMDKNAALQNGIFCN

Edg-4 receptor = target: T4, Edg-4 receptor (Homo sapiens, UniProt Q9HBW0); experiment: Intracellular calcium measurement (FLIPR), LPA-stimulated calcium increases in HTC cells expressing Edg-4; format: cell-based; conditions: FIG. 1 and 2
T4 construct: expressed in transfected cells; host or cells: HTC (rat hepatoma) cells
T4 sequence (Q9HBW0 whole entry): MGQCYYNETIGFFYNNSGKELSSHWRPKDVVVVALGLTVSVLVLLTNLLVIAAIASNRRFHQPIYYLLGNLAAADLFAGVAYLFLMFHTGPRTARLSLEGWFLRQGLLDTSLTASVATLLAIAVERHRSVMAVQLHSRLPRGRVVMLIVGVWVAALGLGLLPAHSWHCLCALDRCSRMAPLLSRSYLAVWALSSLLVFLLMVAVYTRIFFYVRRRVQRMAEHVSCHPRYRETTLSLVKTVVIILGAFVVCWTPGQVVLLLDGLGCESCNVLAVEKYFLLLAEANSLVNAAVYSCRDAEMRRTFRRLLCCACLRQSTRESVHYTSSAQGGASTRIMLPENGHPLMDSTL

Edg 5 receptor = target: T5, Edg 5 receptor (Homo sapiens, UniProt O95136); experiment: Intracellular calcium measurement (FLIPR), S1P-stimulated calcium increases in HTC cells expressing Edg 5; format: cell-based; conditions: FIG. 1 and 2
T5 construct: expressed in transfected cells; host or cells: HTC (rat hepatoma) cells
T5 sequence (O95136 whole entry): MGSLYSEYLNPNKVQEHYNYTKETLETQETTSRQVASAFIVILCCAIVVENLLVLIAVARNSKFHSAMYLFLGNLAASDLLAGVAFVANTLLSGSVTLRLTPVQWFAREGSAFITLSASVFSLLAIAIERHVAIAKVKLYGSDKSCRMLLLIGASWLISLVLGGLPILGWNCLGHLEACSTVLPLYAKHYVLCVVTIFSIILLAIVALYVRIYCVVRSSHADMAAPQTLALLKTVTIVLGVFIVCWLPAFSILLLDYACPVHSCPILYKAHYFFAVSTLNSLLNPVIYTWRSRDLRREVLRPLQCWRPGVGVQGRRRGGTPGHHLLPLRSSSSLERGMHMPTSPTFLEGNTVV

Edg 6 receptor = target: T6, Edg 6 receptor (Homo sapiens, UniProt O95977); experiment: Intracellular calcium measurement (FLIPR), S1P-stimulated calcium increases in HTC cells expressing Edg 6; format: cell-based; conditions: for inhibition of S1P-stimulated calcium increases, Edg 6: FIG. 1 and 2; for IC50: calcium mobilization
T6 construct: expressed in transfected cells; host or cells: HTC (rat hepatoma) cells
T6 sequence (O95977 1-384): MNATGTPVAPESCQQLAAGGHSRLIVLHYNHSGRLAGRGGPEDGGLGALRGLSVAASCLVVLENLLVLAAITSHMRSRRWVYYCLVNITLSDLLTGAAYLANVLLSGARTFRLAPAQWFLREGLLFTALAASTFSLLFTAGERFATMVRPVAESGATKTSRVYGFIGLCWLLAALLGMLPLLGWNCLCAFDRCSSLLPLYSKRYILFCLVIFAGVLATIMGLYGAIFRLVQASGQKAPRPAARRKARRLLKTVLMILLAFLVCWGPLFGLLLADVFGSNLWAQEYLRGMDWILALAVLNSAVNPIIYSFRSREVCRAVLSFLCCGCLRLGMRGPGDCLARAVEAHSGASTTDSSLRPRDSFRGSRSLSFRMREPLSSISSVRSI

Edg-7 receptor = target: T7, Edg-7 receptor (Homo sapiens, UniProt Q9UBY5); experiment: Intracellular calcium measurement (FLIPR), LPA-stimulated calcium increases in HTC cells expressing Edg-7; format: cell-based; conditions: FIG. 1 and 2
T7 construct: expressed in transfected cells; host or cells: HTC (rat hepatoma) cells
T7 sequence (Q9UBY5 whole entry): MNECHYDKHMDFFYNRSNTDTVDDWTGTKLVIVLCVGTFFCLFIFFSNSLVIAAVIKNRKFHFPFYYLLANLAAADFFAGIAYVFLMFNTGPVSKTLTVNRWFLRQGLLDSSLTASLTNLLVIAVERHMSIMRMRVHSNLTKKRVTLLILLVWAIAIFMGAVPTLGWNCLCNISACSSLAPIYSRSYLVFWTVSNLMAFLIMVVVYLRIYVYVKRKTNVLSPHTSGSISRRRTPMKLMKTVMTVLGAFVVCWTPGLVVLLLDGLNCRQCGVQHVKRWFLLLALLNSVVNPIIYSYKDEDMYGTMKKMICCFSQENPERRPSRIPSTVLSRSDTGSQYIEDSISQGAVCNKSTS

Edg 8 receptor = target: T8, Edg 8 receptor (Homo sapiens, UniProt Q9H228); experiment: Intracellular calcium measurement (FLIPR), S1P-stimulated calcium increases in HTC cells expressing Edg 8; format: cell-based; conditions: FIG. 1 and 2
T8 construct: expressed in transfected cells; host or cells: HTC (rat hepatoma) cells
T8 sequence (Q9H228 whole entry): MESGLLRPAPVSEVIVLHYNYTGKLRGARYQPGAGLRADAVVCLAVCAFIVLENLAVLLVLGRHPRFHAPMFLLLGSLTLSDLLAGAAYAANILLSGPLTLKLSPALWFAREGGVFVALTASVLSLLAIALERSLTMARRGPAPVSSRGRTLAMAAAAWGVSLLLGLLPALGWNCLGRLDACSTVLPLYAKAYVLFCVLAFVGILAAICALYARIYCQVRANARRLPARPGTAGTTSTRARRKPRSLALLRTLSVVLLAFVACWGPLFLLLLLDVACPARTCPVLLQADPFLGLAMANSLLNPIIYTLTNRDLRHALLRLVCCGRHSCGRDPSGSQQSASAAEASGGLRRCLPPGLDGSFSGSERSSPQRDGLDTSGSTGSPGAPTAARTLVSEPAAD

[1] = test system: A431 human epitheloid carcinoma cells; experiment: LPA-stimulated calcium mobilization in A431 human epitheloid carcinoma cells; format: cell-based; conditions: for inhibition of LPA-stimulated calcium mobilization: 10 μM compound, FIG. 6
Excerpt: [The procedure below names another cell line; the source lists this cell line under the same test.] as §1

[2] = test system: Adrenergic α1, non-selective; conditions: significance criteria ≧50% of max stimulation or inhibition; Table 2
Procedure: (§2) A radioligand binding assay was performed using adrenergic α1 according to the method of Greengrass and Bremner 1979, Eur. J. Pharmacol. 55:323-326. A radioligand binding assay was performed using adrenergic α2 according to the method of Boyajian and Leslie, 1987, J. Pharmacol. Exp. Ther. 241:1092-1098. A redioligand binding assay was performed using adrenergic β according to the method of Feve et al., 1994, Proc. Natl. Acad. Sci. USA 91:5677-5681. A radioligand binding assay was performed using angiotensin AT2 according to the method of Whitebread el al., 1991, Biochem. Biophys. Res. Comm. 181:1365-1371. A radioligand binding assay was performed using calcium channel Type L, dihydropyridine according to the method of Ehlert et al., 1982, Life Sci. 30:2191-2202. A radioligand binding assay was performed using dopamine D2L according to the method of Bunzo et al., 1988, Nature 336:783-787. A radioligand binding assay was performed using endothelin ETA according to the method of Mihara et al., 1994, J. Phrmacol. Exp Ther. 268:1122-1127. A radioligand binding assay was performed using histamine H1 Central according to the method of Hill et al., 1978, J. Neurochem. 31:997-1004. A radioligand binding assay was performed using Muscarinic non-selective, Central according to the method of Luthin and Wolfe, 1984, J. Pharmacol. Exp. Ther. 228:648-655. A radioligand binding assay was performed using serotonin 5-HT1, non-selective according to the method of Middlemiss, 1984, Eur. J. Pharmacol. 101:289-293).

Adrenergic α2 = conditions: significance criteria ≧50% of max stimulation or inhibition; Table 2
Procedure: as §2

Adrenergic β = conditions: significance criteria ≧50% of max stimulation or inhibition; Table 2
Procedure: as §2

Angiotensin AT2 = Angiotensin AT2 (Homo sapiens, UniProt P50052); conditions: significance criteria ≧50% of max stimulation or inhibition; Table 2
Sequence of Angiotensin AT2 (P50052 whole entry): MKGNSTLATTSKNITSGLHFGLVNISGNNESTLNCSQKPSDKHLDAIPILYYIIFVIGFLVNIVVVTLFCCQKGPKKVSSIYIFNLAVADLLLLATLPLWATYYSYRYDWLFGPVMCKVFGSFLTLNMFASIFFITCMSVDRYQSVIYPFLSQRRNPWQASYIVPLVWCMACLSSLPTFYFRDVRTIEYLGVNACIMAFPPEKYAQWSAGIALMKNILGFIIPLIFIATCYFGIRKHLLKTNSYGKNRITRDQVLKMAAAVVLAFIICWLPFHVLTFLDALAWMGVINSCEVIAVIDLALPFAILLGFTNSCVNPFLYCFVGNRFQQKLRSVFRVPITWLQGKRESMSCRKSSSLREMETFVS
Procedure: as §2

[3] = test system: Calcium Channel Type L, Dihydropyridine; conditions: significance criteria ≧50% of max stimulation or inhibition; Table 2
Procedure: as §2

Dopamine D2L = Dopamine D2L (Homo sapiens, UniProt P14416); conditions: significance criteria ≧50% of max stimulation or inhibition; Table 2
Sequence of Dopamine D2L (P14416 whole entry): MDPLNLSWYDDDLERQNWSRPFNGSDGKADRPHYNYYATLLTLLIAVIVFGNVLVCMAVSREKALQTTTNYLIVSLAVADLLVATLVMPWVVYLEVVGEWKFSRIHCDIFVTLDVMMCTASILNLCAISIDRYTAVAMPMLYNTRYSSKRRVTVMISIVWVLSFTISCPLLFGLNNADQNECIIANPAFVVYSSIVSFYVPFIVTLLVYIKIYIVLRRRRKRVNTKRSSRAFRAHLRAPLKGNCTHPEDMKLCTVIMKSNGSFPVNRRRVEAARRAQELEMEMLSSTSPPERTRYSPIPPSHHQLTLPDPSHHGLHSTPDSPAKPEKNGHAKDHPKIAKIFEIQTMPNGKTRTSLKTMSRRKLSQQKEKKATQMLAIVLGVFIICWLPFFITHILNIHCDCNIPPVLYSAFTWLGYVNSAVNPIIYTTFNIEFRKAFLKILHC
Procedure: as §2

Endothelin ETA = Endothelin ETA (Homo sapiens, UniProt P25101); conditions: significance criteria ≧50% of max stimulation or inhibition; Table 2
Sequence of Endothelin ETA (P25101 21-427): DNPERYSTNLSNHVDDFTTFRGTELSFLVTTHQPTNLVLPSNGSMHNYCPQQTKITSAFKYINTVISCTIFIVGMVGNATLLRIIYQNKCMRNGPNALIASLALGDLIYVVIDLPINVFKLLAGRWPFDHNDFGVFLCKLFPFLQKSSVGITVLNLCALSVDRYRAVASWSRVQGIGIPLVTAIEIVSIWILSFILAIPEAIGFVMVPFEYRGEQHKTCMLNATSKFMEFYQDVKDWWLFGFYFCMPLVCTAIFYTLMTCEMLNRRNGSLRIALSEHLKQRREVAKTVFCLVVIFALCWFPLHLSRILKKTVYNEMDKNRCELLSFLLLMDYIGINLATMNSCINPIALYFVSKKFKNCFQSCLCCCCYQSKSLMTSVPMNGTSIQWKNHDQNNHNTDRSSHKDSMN
Procedure: as §2

Histamine H1, Central = Histamine H1, Central (Cavia porcellus, UniProt P31389); conditions: significance criteria ≧50% of max stimulation or inhibition; Table 2
Sequence of Histamine H1, Central (P31389 whole entry): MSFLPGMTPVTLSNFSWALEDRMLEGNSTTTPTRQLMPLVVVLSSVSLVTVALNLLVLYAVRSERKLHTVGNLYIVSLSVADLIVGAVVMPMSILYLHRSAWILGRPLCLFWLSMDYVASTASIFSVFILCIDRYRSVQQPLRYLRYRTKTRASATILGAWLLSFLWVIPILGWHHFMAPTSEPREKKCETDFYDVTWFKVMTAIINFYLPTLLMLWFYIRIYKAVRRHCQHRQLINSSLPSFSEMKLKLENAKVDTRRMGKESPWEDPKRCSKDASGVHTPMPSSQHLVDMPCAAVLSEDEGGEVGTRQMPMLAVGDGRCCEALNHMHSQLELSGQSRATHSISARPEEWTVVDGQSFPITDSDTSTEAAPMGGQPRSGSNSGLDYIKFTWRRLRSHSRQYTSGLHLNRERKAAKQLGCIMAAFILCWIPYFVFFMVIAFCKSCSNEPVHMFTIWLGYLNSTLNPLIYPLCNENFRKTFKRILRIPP
Procedure: as §2

[4] = test system: Muscarinic non-selective, Central; conditions: significance criteria ≧50% of max stimulation or inhibition; Table 2
Procedure: as §2

[5] = test system: Serotonin 5-HT1, non-selective; conditions: significance criteria ≧50% of max stimulation or inhibition; Table 2
Procedure: as §2

[6] = test system: various targets tested, including other GPCRs, ion channels, and enzymes; experiment: Pharmacology profiling (selectivity assays) at various non-Edg targets; format: binding
Excerpt: Res. Comm. 181:1365-1371. […] Exp Ther. 268:1122-1127. […] 31:997-1004.

[7] = test system: immortalized ovarian surface epithelial cells; experiment: LPA-stimulated calcium mobilization in immortalized ovarian surface epithelial cells; format: cell-based; conditions: 10 μM compound, FIG. 3
Excerpt: [The procedure below names another cell line; the source lists this cell line under the same test.] as §1

[8] = test system: forskolin-stimulated cAMP production; experiment: cAMP assay: LPA inhibition of forskolin-stimulated cAMP production; format: cell-based; conditions: 10 μM compound; FIG. 4
Procedure: Cells were plated in a 96 well format. Treatments were performed directly without any serum starvation. The cells were treated with forskolin to induce cAMP production, followed by LPA or S1P doses in the range from 0.1-10 μM in serum free medium. Following a 30-minute incubation period, the cells were lysed and the level of cAMP was determined.
The cAMP assay was performed using the Tropix cAMP-Screen (Applied BioSystems, Foster City, Calif.). The screen is a competitive immunoassay that utilizes a 96 well assay plate precoated with an anti-cAMP antibody. Cell lysates were added to the precoated plate, along with a cAMP-AP conjugate and a secondary anti-cAMP antibody.
Detection was performed using a substrate solution and chemiluminescent readout. The level of chemiluminescence was inversely proportional to the level of cAMP and was calculated from a standard curve.

T1 sequence (P21453 whole entry): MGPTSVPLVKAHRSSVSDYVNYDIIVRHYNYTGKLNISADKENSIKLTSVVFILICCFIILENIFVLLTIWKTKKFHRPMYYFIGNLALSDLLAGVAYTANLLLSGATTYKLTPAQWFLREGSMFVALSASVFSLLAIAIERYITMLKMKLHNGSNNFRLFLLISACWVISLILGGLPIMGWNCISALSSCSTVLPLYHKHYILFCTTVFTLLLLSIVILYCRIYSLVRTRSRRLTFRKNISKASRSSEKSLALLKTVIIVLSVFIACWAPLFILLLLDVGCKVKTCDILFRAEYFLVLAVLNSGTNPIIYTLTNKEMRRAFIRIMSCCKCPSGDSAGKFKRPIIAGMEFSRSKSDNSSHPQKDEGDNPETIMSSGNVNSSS

## CCOc1ccccc1N1C(=O)CC(N(O)c2ccccc2)C1=O (stereo not shown) [Compound 101, 1-(2-Ethoxyphenyl)-3-(hydroxyphenylamine)-pyrrolidine-2,5-dione]
Edg 1 receptor
  inhibition of S1P-stimulated calcium increases, Edg 1: did not inhibit
Edg-2 receptor
  inhibition of the Edg 2 receptor: specifically inhibit
  IC50: 1400 nM
  Fold Selective: >14.3
Edg 3 receptor
  inhibition of S1P-stimulated calcium increases, Edg 3: did not inhibit
Edg-4 receptor
  inhibition of LPA-stimulated calcium increases, Edg 4: did not inhibit
Edg 5 receptor
  inhibition of S1P-stimulated calcium increases, Edg 5: did not inhibit
Edg 6 receptor
  inhibition of S1P-stimulated calcium increases, Edg 6: did not inhibit
  IC50: > 20 µM
Edg-7 receptor
  inhibition of LPA-stimulated calcium increases, Edg 7: did not inhibit
Edg 8 receptor
  inhibition of S1P-stimulated calcium increases, Edg 8: did not inhibit
[1]
  inhibition of LPA-stimulated calcium mobilization: inhibition
[1]; varying concentrations of compound (0-10 μM), FIG. 5
  inhibition of LPA-stimulated calcium mobilization, dose response to LPA: inhibition
[2]
  activity in radioligand binding assay, Adrenergic Alpha 1, non-selective: no significant activity
Adrenergic α2
  activity in radioligand binding assay, Adrenergic Alpha 2, non-selective: no significant activity
Adrenergic β
  activity in radioligand binding assay, Adrenergic Beta, non-selective: no significant activity
Angiotensin AT2
  activity in radioligand binding assay, Angiotensin AT2: no significant activity
[3]
  activity in radioligand binding assay, Calcium Channels Type L, DHP: no significant activity
Dopamine D2L
  activity in radioligand binding assay, Dopamine D2L: no significant activity
Endothelin ETA
  activity in radioligand binding assay, Endothelin ETA: no significant activity
Histamine H1, Central
  activity in radioligand binding assay, H1 central: no significant activity
[4]
  activity in radioligand binding assay, Muscarinic, non-selective, central: no significant activity
[5]
  activity in radioligand binding assay, Serotonin 5HT1 non-selective: no significant activity
[6]
  activity at various targets tested, including other GPCRs, ion channels, and enzymes: did not demonstrate any significant activity

## CCn1nc(C)c(-c2ccccc2O)c1-c1ccccc1 [Compound 103, 2(1-Ethyl-3-methyl-5-phenyl-1H-pyrazol-4-yl)phenol]
Edg 1 receptor
  inhibition of S1P-stimulated calcium increases, Edg 1: did not inhibit
Edg-2 receptor
  inhibition of the Edg 2 receptor: specifically inhibited
  IC50: 640 nM
  Fold Selective: >31.3
Edg 3 receptor
  inhibition of S1P-stimulated calcium increases, Edg 3: did not inhibit
Edg-4 receptor
  inhibition of LPA-stimulated calcium increases, Edg 4: did not inhibit
Edg 5 receptor
  inhibition of S1P-stimulated calcium increases, Edg 5: did not inhibit
Edg 6 receptor
  inhibition of S1P-stimulated calcium increases, Edg 6: did not inhibit
  IC50: > 20 µM
Edg-7 receptor
  inhibition of LPA-stimulated calcium increases, Edg 7: did not inhibit
Edg 8 receptor
  inhibition of S1P-stimulated calcium increases, Edg 8: did not inhibit
[7]
  inhibition of LPA-stimulated calcium mobilization: almost completely inhibited
[8]
  reversal of LPA inhibition of forskolin-stimulated cAMP production: reverses the inhibitory effects of LPA
[1]
  inhibition of LPA-stimulated calcium mobilization: inhibition
[6]
  activity at various targets tested, including other GPCRs, ion channels, and enzymes: did not demonstrate any significant activity

## CCOc1ccccc1N1C(=O)CC(N(O)c2ccc(F)cc2)C1=O (stereo not shown) [Compound 111, 1-(2-Ethoxyphenyl)-3-[(4-fluorophenyl)hydroxylamino]pyrrolidine-2,5-dione]
other
  melting point: 123 to 124 °C

## O=C(CC(=O)C(F)(F)F)Nc1cc(-c2ccccc2)n[nH]1 [Compound 201, 4,4,4-trifluoro-3-oxo-N-(5-phenyl-2H-pyrazol-3-yl)butyramide, reference compound]
[7]
  inhibition of LPA-stimulated calcium mobilization: little to no effect
[8]
  reversal of LPA inhibition of forskolin-stimulated cAMP production: little to no effect
[1]
  inhibition of LPA-stimulated calcium mobilization: not
